# According to patent US9763938B2, “Substituted quinoxalines as positive allosteric modulators of mGluR4” (MERCK PATENT GMBH, priority 2013, dated 2017):
# Molecular target: T1, hmGluR4 (Homo sapiens, UniProt Q14833)
# T1 construct: host or cells: HEK293T
# Experiment: HEK-293 mGluR4 cells cAMP assay with EC20 L-glutamate (HTRF)
# Assay type: cell-based
# Details: positive allosteric activity at EC20 L-glutamate, 10 μM forskolin, HEK293T mGluR4 cells, read-out: hrmGluR4/HEK293T-hmGluR4 (EC50)
# Experimental: HEK-293 mGluR4 Cells cAMP Assay with EC20 L-Glutamate
# Using mGluR4 suspension cell format, 10 μM Forskolin (final conc.) used to induce the production of cAMP.
# Test the positive allosteric activity of the compounds of the invention at EC20 (2.3 μM for mGluR4 and 4.3 μM for mGluR6) L-Glutamate,
# cAMP dymanic2 kit is intended for the direct quantitative determination of cAMP and its principle is based on HTRF technology.
# Cell Preparation: split cells at 80%-90% confluence. The following day, rinse the cells with DMEM without GlutaMax and change to Glutamine Starvation Media. Incubate overnight.
# Prepare compound plate: Perform compound serial dilution (uses Matrix 4341 plate), using the Bravo liquid handling platform protocol (compound serial dilution) which adds DMSO to columns 1-24 (except cols. 3 and 13). Serial dilute compounds located in columns 3 and 13 at a 1:3 ratio; 10 points (10 ul of 3 mM compound into 20 ul DMSO). Use the Bravo liquid handling platform to transfer 1 ul from the serial dilution plate into Matrix 4314 plate to create stamp plates.
# Dilute 20 mM Forskolin (in DMSO) stock solution in HBSS buffer to make a 20 uM solution (forskolin buffer; 2× solution). To the forskolin buffer, add glutamate to a concentration of 8 uM (compound dilution buffer; 2×EC20 glutamate and forskolin).
# Using a multidrop, add 50 ul/well of compound dilution buffer to columns 1-22 of the 2 ul compound stamp plate. Columns 23 and 24 receive forskolin buffer containing 400 uM glutamate (EC100 glutamate; 2× solution). Columns 1 and 2 receive compound dilution buffer containing EC20 glutamate, which is the basal control. Add a glutamate dose response to row P of compound plate. Prepare the dose response by serial diluting glutamate at a 1:3 ratio in forskolin buffer starting at 2 mM glutamate (2×). Dilute the glutamate 9 times and transfer to compound plate.
# Harvest cells: Rinse cells with pre-warmed HBSS-10 mM HEPES (without Ca Mg) and dissociate the cells from the flask with versene. Centrifuge the cells, remove the supernatant and suspend in pre-warmed HBSS+10 mM Hepes. Count the cells and centrifuge. Remove the supernatant and suspend the cells in HBSS+Hepes (with Ca Mg) at a density of 400,000 cells/ml.
# Dispense 5 ul from the diluted compound plate into Greiner low volume cell plate using the Bravo liquid handling platform. Using a Multidrop with the small tubing cassette, dispense 5 ul of cells (2000 cells/well) onto the compounds contained in the low volume plates. Incubate the cells at 37° C., 5% CO2 for 30 minutes in the incubator.
# Prepare cAMP-d2 and anti-cAMP-Crytate according to the instructions for the two step assay (see Cisbio manual) and add 10 ul of the mixed reagent to each well of the assay plate using the Multidrop. Incubate at room temperature for 60 minutes and read on the Envision plate reader using the mGluR low volume cAMP HTRF 384 well protocol. The readout is the calculated fluorescence ratio ([…]*10000).
# T1 sequence (Q14833 33-912): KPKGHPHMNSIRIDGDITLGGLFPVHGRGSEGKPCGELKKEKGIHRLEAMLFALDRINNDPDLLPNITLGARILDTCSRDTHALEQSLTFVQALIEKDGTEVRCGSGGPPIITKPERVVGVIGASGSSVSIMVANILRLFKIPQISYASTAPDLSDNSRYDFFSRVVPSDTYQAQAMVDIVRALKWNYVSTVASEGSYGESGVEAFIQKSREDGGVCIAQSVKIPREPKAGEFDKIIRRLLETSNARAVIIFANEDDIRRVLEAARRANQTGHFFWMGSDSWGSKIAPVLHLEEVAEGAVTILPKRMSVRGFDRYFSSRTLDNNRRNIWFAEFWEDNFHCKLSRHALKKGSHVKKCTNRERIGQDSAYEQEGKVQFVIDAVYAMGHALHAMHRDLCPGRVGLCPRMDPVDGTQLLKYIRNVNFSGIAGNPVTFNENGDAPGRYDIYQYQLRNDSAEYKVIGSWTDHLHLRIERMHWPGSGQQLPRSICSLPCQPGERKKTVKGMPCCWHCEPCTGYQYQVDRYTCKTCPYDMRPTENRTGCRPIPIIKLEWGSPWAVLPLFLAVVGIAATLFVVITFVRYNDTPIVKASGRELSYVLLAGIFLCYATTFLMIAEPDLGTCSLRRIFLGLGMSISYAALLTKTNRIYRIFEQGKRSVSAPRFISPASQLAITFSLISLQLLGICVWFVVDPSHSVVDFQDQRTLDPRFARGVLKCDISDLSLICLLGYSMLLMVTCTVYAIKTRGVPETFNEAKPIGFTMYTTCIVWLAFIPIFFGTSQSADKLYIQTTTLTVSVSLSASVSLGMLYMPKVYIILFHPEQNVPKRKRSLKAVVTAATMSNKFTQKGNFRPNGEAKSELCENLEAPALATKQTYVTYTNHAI
row,EC50,Compound
1,1000 to 10000 nM,"c1ccc(-c2nc3ccccc3nc2-c2cccc3cccnc23)cc1 [Compound 6, 2-Phenyl-3-quinolin-8-yl-quinoxaline]"
2,1000 to 10000 nM,"Cc1cccc2nc(-c3ccccc3)c(-c3ccccc3)nc12 [Compound 5, 5-Methyl-2,3-diphenyl-quinoxaline]"
3,1000 to 10000 nM,"c1ccc(-c2nc3c(nc2-c2ccccc2)CCCC3)cc1 [Compound 8, 2,3-Diphenyl-5,6,7,8-tetrahydro-quinoxaline]"
4,1000 to 10000 nM,"Fc1ccc(-c2nc3ccccc3nc2-c2ccccc2)cc1F [Compound 10, 2-(3,4-Difluoro-phenyl)-3-phenyl-quinoxaline]"

# The remaining lines, values behind:
row,Compound,EC50
1,"Fc1ccc(-c2nc3ccccc3nc2-c2cccc3[nH]ccc23)cc1F [Compound 4, 2-(3,4-Difluoro-phenyl)-3-(1H-indol-4-yl)-quinoxaline]",1000 to 10000 nM
2,"c1ccc(-c2nc3ccccc3nc2-c2ccnc3ccccc23)cc1 [Compound 1, 2-Phenyl-3-quinolin-4-yl-quinoxaline]",< 1000 nM
3,"OC1CCN(c2nc3ccccc3nc2-c2ccccc2)CC1 [Compound 3, 1-(3-Phenyl-quinoxalin-2-yl)-piperidin-4-ol]",< 1000 nM
4,"Oc1ccc(-c2nc3ccccc3nc2-c2ccccc2)cc1 [Compound 2, 4-(3-Phenyl-quinoxalin-2-yl)-phenol]",< 1000 nM
5,"Fc1ccccc1-c1nc2ccccc2nc1-c1ccccc1F [Compound 9, 2,3-Bis-(2-fluoro-phenyl)-quinoxaline]",1000 to 10000 nM
6,"CC(=O)c1cccc2nc(-c3ccccc3)c(-c3ccccc3)nc12 [Compound 7, 1-(2,3-Diphenyl-quinoxalin-5-yl)-ethanone]",1000 to 10000 nM
